Source: patent US6673354B2, “Compositions and methods for treating papillomavirus-infected cells” (priority 1998, dated 2004)
Where no end group is shown, it is not given here.

Legend:
[1] = system: in vitro HPV16 DNA replication; assay: In vitro replication of HPV16 DNA (293 cell extract, EE-E1, HPV16 E2); type: biochemical; details: 40 ng EE-E1 and 6 ng HPV16 E2, FIG. 7
Description: In vitro replication reactions. In vitro replication reactions were essentially as described by Kuo et al. (18) in 25 μl reactions at 37° C. for indicated times. Standard reactions were for 2 hours, and were terminated by addition of 200 μl stop solution (20 mM Tris-HCl pH 7.5, 10 mM EDTA, 0.1% SDS, and 20 μg/ml RNase A). After incubation at 37° C. for 15 minutes, proteinase K was added (200 μg/ml) and incubation was continued 30 minutes. Samples were extracted with 250 μl phenol/chloroform/isoamyl alcohol (25:24:1), ethanol precipitated, washed with 70% ethanol, dried, resuspended in 20-30μl TE, and analyzed on a 0.8% agarose gel (TAE). The agarose gel was dried onto Hybond N+ membrane (Amersham), and replicated DNA was visualized by autoradiography. Bands were quantitated by Phosphorimager analysis. Replication templates were pKS7838-7905 (nt7838-7905/1-130) containing the HPV16 replication origin, and pUC7874-99 containing the HPV11 origin of replication (nt7874-7933/1-99). pUC7874-99 was a generously provided by Dr. Louise Chow.
We sought to establish a system for the study of HPV16 DNA replication in vitro, and to determine whether specific interaction between HPV16 E1 and E2 was required for HPV16 DNA replication in this system. […] As has been documented for other papillomavirus E1 proteins, some replication was observed using relatively large amounts of E1 in the absence of E2 (lanes 2 through 7) (6, 16, 22, 33, 40, 48). […] Replication in this assay is ori-dependent, since the small amount of replication of the pKS plasmid lacking the HPV16 origin detected at high concentrations of EE-E1 (FIG. 3B, lanes 1-6) was not stimulated by E2 (FIG. 1B, lanes 7-12).
Since the E2N-WP23 and E2N-WP 15 peptides could inhibit interaction between […] E1 and E2, their ability to inhibit in vitro HPV16 DNA replication was also tested (FIGS. 7A and 7B).

[2] = biological target: T1, interaction between HPV16 E1 and E2 (Human papillomavirus type 16, UniProt P03114); assay: In vitro HPV E1-E2 binding assay (co-immunoprecipitation / Western blot), HPV16 E1 and HPV16 E2; details: increasing peptide concentrations, FIG. 6A
T1 construct: made in house; host or cells: Hi-Five insect cells infected with recombinant baculovirus (pVL1392); nuclear extracts
T1 sequence (P03114 whole entry, looked up): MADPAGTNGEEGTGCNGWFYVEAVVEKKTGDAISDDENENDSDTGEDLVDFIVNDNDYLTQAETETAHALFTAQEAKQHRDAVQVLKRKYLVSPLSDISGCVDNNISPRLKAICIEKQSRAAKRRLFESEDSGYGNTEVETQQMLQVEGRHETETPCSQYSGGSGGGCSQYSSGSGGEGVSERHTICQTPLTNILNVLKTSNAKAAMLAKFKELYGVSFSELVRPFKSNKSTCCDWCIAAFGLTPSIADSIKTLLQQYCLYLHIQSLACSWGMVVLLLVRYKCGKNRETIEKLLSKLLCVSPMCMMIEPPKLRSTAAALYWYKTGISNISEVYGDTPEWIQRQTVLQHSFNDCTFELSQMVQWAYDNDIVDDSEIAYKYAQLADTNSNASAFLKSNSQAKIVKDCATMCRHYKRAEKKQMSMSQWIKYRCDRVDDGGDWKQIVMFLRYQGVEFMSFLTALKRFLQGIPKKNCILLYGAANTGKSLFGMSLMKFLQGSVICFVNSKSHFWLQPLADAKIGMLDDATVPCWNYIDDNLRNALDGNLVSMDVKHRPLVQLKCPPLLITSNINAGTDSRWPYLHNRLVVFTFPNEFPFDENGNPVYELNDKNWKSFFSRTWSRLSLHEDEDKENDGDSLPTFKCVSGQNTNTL
Description: In vitro HPV E1-E2 binding assay. 300-500 ng protein from HPV16 or HPV11 EE-E1 expressing recombinant baculovirus infected cell nuclear extracts and 80-120 ng from HPV E2 baculovirus infected cell nuclear extracts were incubated in 500 μl NET-gel buffer (50 mM Tris-HCl pH7.5, 150 mM NaCl, 0.1% NP-40, 1 mM EDTA, 0.25% gelatin) at 4° C. for one hour. 1-2 μg anti-EE monoclonal antibody was added and incubated with shaking at 4° C. for one hour. Immune complexes were precipitated with protein-G agarose beads and washed twice for 30 minutes with ice cold NET-gel buffer. Precipitated proteins were detected by Western blot using appropriate primary antibodies and anti-rabbit IgG HRP or anti-mouse IgG HRP (Amersham). Membranes were blocked for one hour in TNET (10 mM Tris 7.5, 2.5 mM EDTA, 50 mM NaCl, 0.1% Tween-20) containing 4% (w/v) dry milk. Washes and antibody reactions were carried out in TNET, and proteins were visualized by chemiluminescence (Reneaissance ECL, NEN) and autoradiography. Bands were quantitated using the NIH image program.
Therefore, we reasoned that a peptide encompassing this domain of HPV16 E2 might inhibit interaction between HPV16 E1 and E2, thereby inhibiting HPV16 DNA replication (FIG. 5). In order to test this possibility, HPV16 E2 and epitope tagged full length HPV16 E1 (EE16-E1) proteins were expressed separately using baculovirus vectors. EE-E1 and associated E2 proteins were immunoprecipitated using an anti-EE epitope monoclonal antibody. Precipitated E2 was detected by Western blot using polyclonal antiserum raised to the DNA binding domain of HPV16 E2 (35). As shown in lane 2 of FIG. 6A, E2 co-immunoprecipitated with EE16-E1, but was not precipitated by the EE epitope antibody in the absence of EE16-E1 (lane 1). Peptides encompassing HPV16 E2 amino acids 29-51 (E2N-WP23) or residues 33-47 (E2N-WP15) of HPV16 E2 were then tested for inhibition of E1-E2 interaction. These peptide sequences were derived from the sequence of HPV16 E2, and were based on an alignment of amino terminal residues that are conserved among the papillomavirus E2 proteins (FIG. 5). […] Both the HPV16 E2 protein itself and the E2 derived peptides act specifically in these assays, since the E39A replication defective HPV16 E2 mutant bound only slightly to EE16-E1 (lanes 14). […] These peptides are named E2N-MP23 and E2N-MP15, respectively (see FIG. 5). […] We have previously shown that a domain spanning amino acids 421-647 of the HPV16 E1 carboxy terminus is necessary and sufficient for E2 interaction (45).

WKHMRLACAIYYKAR [E2N-MP15]
inhibition of in vitro HPV16 DNA replication [1]: wild type peptides inhibited replication much more effectively than the respective E39A substituted analog
inhibition of HPV16 E1-E2 interaction [2]: did not inhibit E1-E2 interaction at concentrations at which the wild type peptide could do so
